Reference: patent US20240325394A1, “SALT AND CRYSTAL FORM OF NITROGEN-CONTAINING HETEROCYCLIC DERIVATIVE, PREPARATION METHOD THEREFOR AND APPLICATION THEREOF” (SHANGHAI HANSOH BIOMEDICAL CO., LTD., priority 2020, published 2024)
Read-outs that look alike come from different tables or passages of the source.

Columns and labels:
[1] = Plasma stability, human plasma; type: in vitro ADME; settings: human
Procedure: (§1) Animal or human whole blood was collected, then the blood was put into a test tube containing anticoagulant, centrifuged at 3500 rpm for 10 min, and the upper layer of pale yellow plasma was collected. • 2) 10 μM of tested compound (m/M/V=C)
(§2) The compound was weighed, the stock solution was prepared with DMSO and the working solution was prepared with 100 mM phosphate buffer. • 3) 10 μM of positive control • (1) Propantheline (Propantheline Mr=449.4 Da)
(§3) • 1) 285 μL of plasma and 15 μL of 10 μM compound (tested compound) were added in turn in a 96-well plate, and incubated at 37° C. • 2) 40 μL was taken out at 0, 15, 30, 60, 90, 120 min, respectively, and 160 μL of acetonitrile termination solution containing internal standard was added. • 3) After centrifugation (3500 rpm, 10 min), 50 μL of supernatant was taken out, and then diluted with 50 μL DDH2O and injected to LC-MS/MS.
(§4) • instrument: Shimadzu LC-20 AD • chromatographic column: phenomenex Gemiu® C18 (50*4.6 mm, 5 μM particle size); • mobile phase: A: acetonitrile, B: 0.1% formic acid solution 0-8 min: 5% A→95% A, 2.0-2.1 min: 90% A→5% A; flow rate: 0.8 mL/min; running time: 5.0 min; injection volume: 5 μL.
(§5) • instrument: API4000 Liquid Chromatography-Mass Spectrometry, AB, USA; • the ion source was electrospray ionization source (ESI); • the temperature of dry gas (N2) was 500° C.; • electrospray voltage was 5500V; • the detection method was positive ion detection; • the scanning mode was selective response monitoring (MRM); • the scanning time was 0.1 s.

[2] = Plasma stability, rat plasma; type: in vitro ADME
Procedure: as §1, §2, §3, §4, §5

[3] = Plasma stability, mouse plasma; type: in vitro ADME
Procedure: as §1, §2, §3, §4, §5

[4] = Plasma stability, dog plasma; type: in vitro ADME
Procedure: as §1, §2, §3, §4, §5

[5] = Pharmacokinetics in MiaPaca 2 tumor-bearing mice (plasma, tumor tissue); type: in vivo; settings: female, mouse, po, p.o. 6 mg/kg
Procedure: The pharmacokinetic behavior of the compound of the embodiment 13-1 and AMG-510 compound, administered orally at a dose of 6 mg/kg, in mice (plasma, tumor tissue and intestine) was studied using MiaPaca 2 tumor-bearing mice as test animals.
24 MiaPaca 2 tumor-bearing mice, females. 3 for each time point (0 h, 1 h, 2 h, 4 h, 6 h, 8 h, 16 h, 24 h). Shanghai xipuer-bikai Laboratory Animal Co., Ltd, Animal Production License No. (SCXK (Shanghai) 2018-0006.
Embodiment compound 13-1 and compound AMG-510 were weighed and dissolved in the solution, the mixture was shaken well, and ultrasound was performed for 15 minutes to obtain a uniform suspension with a concentration of 0.6 mg/mL.
MiaPaca 2 tumor-bearing mice were administered at a dose of 6 mg/kg in a volume of 10 mL/kg, respectively, based on body weight p.o. after fasting (animals were not administered at point 0 h).
Before and after administration, mice were sacrificed with CO2, 0.5 mL blood was collected from the heart and placed in EDTA-2K tube, centrifuged at 4° C. […] The duodenum, ileum and colon tissues were cut with scissors, the contents were removed and cleaned twice with PBS, after absorbing water with absorbent paper, they were weighed, placed in a 2 mL centrifuge tube and stored at −80° C.

[6] = system: NCI-H358 cells (KRAS G12C mutant); experiment: Inhibition of NCI-H358 cell proliferation (CellTiter-Glo, 72 h); type: cell-based, human
Procedure: (§6) When NCI-H358 or Mia PaCa-2 cells were cultured to the appropriate fusion level, the NCI-H358 or Mia PaCa-2 cells were collected, and the cells were adjusted to the appropriate cell concentration using a complete medium, and the cell suspension was spread in a 96-well plate, 90 μL per well, and placed in a 37° C., 5% CO2 incubator overnight; and compound solutions of different concentrations were prepared using DMSO and culture medium; and a solvent control was set, the compound solution was added to a 96-well plate, 10 μL per well, at 37° C. in a 5% CO2 incubator for 72 hours; CellTiter-Glo solution was added thereto and the mixture was mixed well by shaking, incubated for 10 min in the dark, and read by BioTek Synergy H1 microplate reader.
(§7) The luminescence signal values were used to calculate the inhibition rate, the concentration and the inhibition rate were fitted to a nonlinear regression curve using Graphpad Prism software, then the IC50 value was obtained.

[7] = system: Mia PaCa-2 cells (KRAS G12C mutant); experiment: Inhibition of Mia PaCa-2 cell proliferation (CellTiter-Glo, 72 h); type: cell-based, human
Procedure: as §6, §7

human KRAS G12C protein = target: T1, human KRAS G12C protein (Homo sapiens, UniProt P01116, G12C); experiment: Thermal shift: melting temperature of KRAS G12C protein; type: binding; settings: for Tm: KRAS G12C protein 5.37 μM with compound 10 μM, 1 hour; for ΔTm at 10 µM: Tm minus Tm of DMSO solvent control, compound 10 μM
T1 construct: purchased Beijing SinoBiological Co., Ltd. 12259-H07E2
Procedure: In this experiment, the thermal shift method was used to test the degree of change in the melting temperature (Tm) of the KRAS G12C protein before and after the binding of the compound, in order to characterize the ability of the compound to improve the stability of the KRAS G12C protein.
The specific experiment operation was as follows: • A solution containing […] (pH 7.5), 1 mM DTT, 5× SYPRO Orange and 150 mM NaCl was prepared as the experimental buffer, and a final concentration of 5.37 μM human KRAS G12C protein was added thereto. The reaction mixture was divided into 8 rows of PCR tubes, each 19.5 μL, and 0.5 μL of the test compound or DMSO were added respectively, so that the total reaction system was 20 μL, the final concentration of the compound was 10 μM, and 2.5% DMSO was set as the solvent control. After incubating at room temperature in the dark for 1 hour, the PCR tube was put into the PCR instrument, QuantStudio Software v1.3 was opened, and the melting temperature of KRAS G12C protein in different treatment groups was detected by melt curve function (heating from 25° C. to 95° C., 0.03° C./s).
The experimental data file of PCR instrument was imported into thermal shift software, and the melting temperature (Tm) of each treatment group was obtained, and the change value of melting temperature (ATm) was obtained by subtracting the Tm of DMSO solvent control group.

C=CC(=O)N1CCN(c2nc(=O)n(-c3c(C)ccnc3C(C)C)c3nc(-c4c(O)cccc4F)c(F)cc23)[C@@H](C)C1 [AMG 510, reference compound]
Residual rate (%) 0 min ([1]; 0 min, 0.5 μM): 100.00% | Residual rate (%) 15 min ([1]; 15 min, 0.5 μM): 93.77% | Residual rate (%) 30 min ([1]; 30 min, 0.5 μM): 85.72% | Residual rate (%) 60 min ([1]; 60 min, 0.5 μM): 82.51% | Residual rate (%) 120 min ([1]; 120 min, 0.5 μM): 64.44% | half-life at 0.5 μM ([1]; plasma): 3.31 h | Residual rate (%) 0 min ([2]; rat plasma, 37° C., 0 min): 100.00% | Residual rate (%) 15 min ([2]; rat plasma, 37° C., 15 min): 100.85% | Residual rate (%) 30 min ([2]; rat plasma, 37° C., 30 min): 93.03% | Residual rate (%) 60 min ([2]; rat plasma, 37° C., 60 min): 77.54% | Residual rate (%) 120 min ([2]; rat plasma, 37° C., 120 min): 56.77% | half-life at 0.5 μM ([2]; rat, plasma): 2.29 h | Residual rate (%) 0 min ([3]; mouse plasma, 37° C., 0 min): 100.00% | Residual rate (%) 15 min ([3]; mouse plasma, 37° C., 15 min): 97.50% | Residual rate (%) 30 min ([3]; mouse plasma, 37° C., 30 min): 82.58% | Residual rate (%) 60 min ([3]; mouse plasma, 37° C., 60 min): 81.82% | Residual rate (%) 120 min ([3]; mouse plasma, 37° C., 120 min): 63.23% | half-life at 0.5 μM ([3]; mouse, plasma): 3.08 h | Residual rate (%) 0 min ([4]; dog plasma, 37° C., 0 min): 100.00% | Residual rate (%) 15 min ([4]; dog plasma, 37° C., 15 min): 98.88% | Residual rate (%) 30 min ([4]; dog plasma, 37° C., 30 min): 101.14% | Residual rate (%) 60 min ([4]; dog plasma, 37° C., 60 min): 93.43% | Residual rate (%) 120 min ([4]; dog plasma, 37° C., 120 min): 91.92% | half-life at 0.5 μM ([4]; dog, plasma): 14.7 h | MRT ([5]; Plasma): 0.8 h | half-life ([5]; Plasma): 0.3 h | MRT ([5]; Tumor): 0.7 h | half-life ([5]; Tumor): 0.3 h | Kp ([5]; exposure in tumor to exposure in plasma, read-out: Ratio (T/P)): 0.42

C=CC(=O)N1CCN(c2nc(=O)n(-c3c(SC)ccnc3C(C)C)c3nc(-c4c(O)cccc4F)c(F)cc23)[C@@H](C)C1 [Embodiment 1-1, P-4-((S)-4-acryloyl-2-methylpiperazin-1-yl)-6-fluoro-7-(2-fluoro-6-hydroxyphenyl)-1-(2-isopropyl-4-(methylthio)pyridin-3-yl)pyrido[2,3-d]pyrimidin-2(1H)-one]
IC50 [6]: 28 nM | IC50 [7]: 55 nM

C=CC(=O)N1CCN(c2nc(=O)n(-c3c(SC)ccnc3C(C)C)c3nc(-c4c(O)cccc4F)c(Cl)cc23)[C@@H](C)C1 [Embodiment 3, 4-((S)-4-Acryloyl-2-methylpiperazin-1-yl)-6-chloro-7-(2-fluoro-6-hydroxyphenyl)-1-(2-isopropyl-4-(methylthio)pyridin-3-yl)pyrido[2,3-d]pyrimidin-2(1H)-one]
IC50 ([6]; Homo sapiens, NCI-H358, 72 h): 14 nM | IC50 ([7]; Homo sapiens, MIA PaCa-2, 72 h): 41 nM | Tm (human KRAS G12C protein): 61.5 °C | ΔTm at 10 µM (human KRAS G12C protein): 10.9 °C

C=CC(=O)N1CCN(c2nc(=O)n(-c3c(SC)ccnc3C(C)C)c3nc(-c4c(F)cccc4SC)c(F)cc23)[C@@H](C)C1 [Embodiment 4, 4-((S)-4-Acryloyl-2-methylpiperazin-1-yl)-6-fluoro-7-(2-fluoro-6-(methylthio)phenyl)-1-(2-isopropyl-4-(methylthio)pyridin-3-yl)pyrido[2,3-d]pyrimidin-2(1H)-one]
IC50 ([6]; Homo sapiens, NCI-H358, 72 h): 48 nM | IC50 ([7]; Homo sapiens, MIA PaCa-2, 72 h): 47 nM | Tm (human KRAS G12C protein): 61.2 °C | ΔTm at 10 µM (human KRAS G12C protein): 11.7 °C

C=CC(=O)N1CCN(c2nc(=O)n(-c3c(SC)ccnc3C(C)C)c3nc(-c4c(F)cccc4F)c(Cl)cc23)[C@@H](C)C1 [Embodiment 12, (S)-4-(4-acryloyl-2-methylpiperazin-1-yl)-7-(2,6-difluorophenyl)-6-chloro-1-(2-isopropyl-4-(methylthio)pyridin-3-yl)pyrido[2,3-d]pyrimidin-2(1H)-one]
IC50 ([6]; Homo sapiens, NCI-H358, 72 h): 79 nM | IC50 ([7]; Homo sapiens, MIA PaCa-2, 72 h): 68 nM
